The record followed here is patent publication US20070032508A1, “Quinazoline derivatives as tyrosine kinase inhibitors” (priority 2003, published 2007).

In one experiment the target is T1, erbB2 tyrosine kinase (Homo sapiens, UniProt P04626).
T1 construct: Recombinant intracellular fragments of EGFR, erbB2 and erbB4; made in house; host or cells: baculovirus/Sf21 insect cells (cleared lysate used)
Put plainly: Test (a) protein tyrosine kinase phosphorylation assay, erbB2. It is filed as biochemical. The following applies: recombinant intracellular fragment, ATP at Km; read-out: IC50 Test (a): Inhibition of erbB2 tyrosine kinase protein phosphorylation. As for the experimental part:
(§1) A) Protein Tyrosine Kinase Phosphorylation Assays
(§2) Recombinant intracellular fragments of EGFR, erbB2 and erbB4 (accession numbers X00588, X03363 and L07868 respectively) were cloned and expressed in the baculovirus/Sf21 system. Lysates were prepared from these cells by treatment with ice-cold lysis buffer (20 mM N-2-hydroxyethylpiperizine-N′-2-ethanesulfonic acid (HEPES) pH7.5, 150 mM NaCl, 10% glycerol, 1% Triton X-100, 1.5 mM MgCl2, 1 mM ethylene glycol-bis(β-aminoethyl ether) N′,N′,N′,N′-tetraacetic acid (EGTA), plus protease inhibitors and then cleared by centrifugation.
(§3) Constitutive kinase activity of these recombinant proteins was determined by their ability to phosphorylate a synthetic peptide (made up of a random co-polymer of Glutamic Acid, Alanine and Tyrosine in the ratio of 6:3:1). Specifically, Maxisorb™ 96-well immunoplates were coated with synthetic peptide (0.2 μg of peptide in a 200 μl phosphate buffered saline (PBS) solution and incubated at 4° C. overnight). Plates were washed in 50 mM HEPES pH 7.4 at room temperature to remove any excess unbound synthetic peptide. […]
(§4) The immobilised phospho-peptide product of the reaction was detected by immunological methods. […] After further washing, HRP activity in each well of the plate was measured […] using 22′-Azino-di-[3-ethylbenzthiazoline sulfonate (6)] diammonium salt crystals (ABTS™ from Roche) as a substrate.
(§5) Quantification of colour development and thus enzyme activity was achieved by the measurement of absorbance at 405 nm on a Molecular Devices ThermoMax microplate reader. Kinase inhibition for a given compound was expressed as an IC50 value. […] The range of phosphorylation was calculated from the positive (vehicle plus ATP) and negative (vehicle minus ATP) control values.

A further experiment addresses T2, EGFR tyrosine kinase (Homo sapiens, UniProt P00533).
T2 construct: Recombinant intracellular fragments of EGFR, erbB2 and erbB4; made in house; host or cells: baculovirus/Sf21 insect cells (cleared lysate used)
Description: Test (a) protein tyrosine kinase phosphorylation assay, EGFR. It is filed as biochemical. The following applies: recombinant intracellular fragment, ATP at Km; read-out: IC50 Test (a): Inhibition of EGFR tyrosine kinase protein phosphorylation. As for the experimental part: as §1
This test measures the ability of a test compound to inhibit the phosphorylation of a tyrosine containing polypeptide substrate by EGFR tyrosine kinase enzyme.
as §2, §3, §4, §5

Experiment [1] addresses T3, erbB2 in a MCF7 derived cell line (Clone 24 cells) (Homo sapiens, UniProt P04626).
T3 construct: a cell line that overexpresses full length wild type erbB2 protein; expressed in transfected cells; host or cells: MCF7 (breast carcinoma) cells, 'Clone 24'
Put plainly: Test (c) Clone 24 phospho-erbB2 cell assay. It is filed as cell-based. The following applies: Clone 24 cells (MCF7 transfected with full length erbB2), 4 hrs with compound; read-out: IC50 Test (c): Inhibition of erbB2 tyrosine kinase protein phosphorylation. How it is done: c) Clone 24 phospho-erbB2 Cell Assay
This immunofluorescence end point assay measures the ability of a test compound to inhibit the phosphorylation of erbB2 in a MCF7 (breast carcinoma) derived cell line which was generated by transfecting MCF7 cells with the full length erbB2 gene using standard methods to give a cell line that overexpresses full length wild type erbB2 protein (hereinafter ‘Clone 24’ cells).
Clone 24 cells were cultured in Growth Medium (phenol red free Dulbecco's modified Eagle's medium (DMEM) containing 10% foetal bovine serum, 2 mM glutamine and 1.2 mg/ml G418) in a 7.5% CO2 air incubator at 37° C. Cells were harvested from T75 stock flasks by washing once in PBS phosphate buffered saline, pH7.4, Gibco No. 10010-015) and harvested using 2 mls of Trypsin (1.25 mg/ml)/ethylaminediaminetetraacetic acid (EDTA) (0.8 mg/ml) solution. The cells were resuspended in Growth Medium. Cell density was measured using a haemocytometer and viability was calculated using Trypan Blue solution before being further diluted in Growth Medium and seeded at a density of 1×10^4 cells per well (in 100 ul) into clear bottomed 96 well plates (Packard, No. 6005182).
3 days later, Growth Medium was removed from the wells and replaced with 100 ul Assay Medium (phenol red free DMEM, 2 mM glutamine, 1.2 mg/ml G418) either with or without erbB inhibitor compound. Plates were returned to the incubator for 4 hrs and then 20 μl of 20% formaldehyde solution in PBS was added to each well and the plate was left at room temperature for 30 minutes. This fixative solution was removed with a multichannel pipette, 100 μl of PBS was added to each well and then removed with a multichannel pipette and then 50 μl PBS was added to each well. Plates were then sealed and stored for up to 2 weeks at 4° C.
Immunostaining was performed at room temperature. […]
The Fluorescence signal is each well was measured using an Acumen Explorer Instrument (Acumen Bioscience Ltd.), a plate reader that can be used to rapidly quantitate features of images generated by laser-scanning. […]

T3 sequence (P04626 23-1255): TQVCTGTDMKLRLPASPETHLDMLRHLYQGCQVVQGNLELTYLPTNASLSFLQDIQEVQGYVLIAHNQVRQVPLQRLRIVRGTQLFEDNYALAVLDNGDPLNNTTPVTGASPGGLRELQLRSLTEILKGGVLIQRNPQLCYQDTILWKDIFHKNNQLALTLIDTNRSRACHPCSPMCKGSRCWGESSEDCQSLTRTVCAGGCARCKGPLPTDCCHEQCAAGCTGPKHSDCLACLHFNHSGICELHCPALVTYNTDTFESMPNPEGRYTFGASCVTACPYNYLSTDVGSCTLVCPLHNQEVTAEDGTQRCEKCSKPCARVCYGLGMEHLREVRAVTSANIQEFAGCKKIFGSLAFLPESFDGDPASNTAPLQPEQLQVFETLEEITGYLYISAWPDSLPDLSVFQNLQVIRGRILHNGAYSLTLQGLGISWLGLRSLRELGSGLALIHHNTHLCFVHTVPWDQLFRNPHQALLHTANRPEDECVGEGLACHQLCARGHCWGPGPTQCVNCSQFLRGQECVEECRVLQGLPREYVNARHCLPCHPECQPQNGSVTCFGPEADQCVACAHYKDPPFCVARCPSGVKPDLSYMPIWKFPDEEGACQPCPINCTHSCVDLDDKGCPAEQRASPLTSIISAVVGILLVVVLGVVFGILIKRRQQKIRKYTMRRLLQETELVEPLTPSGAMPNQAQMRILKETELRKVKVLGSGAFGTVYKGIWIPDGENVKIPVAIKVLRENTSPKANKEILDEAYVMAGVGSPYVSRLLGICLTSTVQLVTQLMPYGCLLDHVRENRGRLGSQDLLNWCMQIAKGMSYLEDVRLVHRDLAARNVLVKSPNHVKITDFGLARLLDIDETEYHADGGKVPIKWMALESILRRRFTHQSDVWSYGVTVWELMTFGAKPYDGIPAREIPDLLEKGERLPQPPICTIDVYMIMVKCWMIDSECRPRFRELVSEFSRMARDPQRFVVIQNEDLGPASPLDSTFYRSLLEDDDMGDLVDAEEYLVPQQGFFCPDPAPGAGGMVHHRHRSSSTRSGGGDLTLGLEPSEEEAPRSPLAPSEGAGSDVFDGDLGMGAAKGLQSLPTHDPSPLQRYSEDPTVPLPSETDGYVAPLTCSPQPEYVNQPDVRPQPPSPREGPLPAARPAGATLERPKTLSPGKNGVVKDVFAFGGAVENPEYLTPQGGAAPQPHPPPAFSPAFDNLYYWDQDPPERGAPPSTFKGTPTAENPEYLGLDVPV
T2 sequence (P00533 669-1210 limits assumed): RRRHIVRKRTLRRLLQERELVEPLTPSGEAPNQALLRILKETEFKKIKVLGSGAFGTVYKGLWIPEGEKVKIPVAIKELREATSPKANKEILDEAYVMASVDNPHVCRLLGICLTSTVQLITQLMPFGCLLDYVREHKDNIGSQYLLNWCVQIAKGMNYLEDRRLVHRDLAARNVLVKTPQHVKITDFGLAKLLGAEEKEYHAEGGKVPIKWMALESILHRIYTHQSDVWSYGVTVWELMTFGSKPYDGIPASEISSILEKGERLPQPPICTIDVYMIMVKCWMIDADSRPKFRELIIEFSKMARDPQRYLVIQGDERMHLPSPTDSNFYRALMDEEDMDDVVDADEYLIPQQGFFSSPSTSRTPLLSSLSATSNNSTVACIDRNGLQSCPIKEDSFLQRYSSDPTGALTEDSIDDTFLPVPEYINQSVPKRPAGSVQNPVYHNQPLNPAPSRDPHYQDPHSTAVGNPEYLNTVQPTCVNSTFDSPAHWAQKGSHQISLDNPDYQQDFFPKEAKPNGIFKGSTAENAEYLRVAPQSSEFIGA
T1 sequence (P04626 676-1255 limits assumed): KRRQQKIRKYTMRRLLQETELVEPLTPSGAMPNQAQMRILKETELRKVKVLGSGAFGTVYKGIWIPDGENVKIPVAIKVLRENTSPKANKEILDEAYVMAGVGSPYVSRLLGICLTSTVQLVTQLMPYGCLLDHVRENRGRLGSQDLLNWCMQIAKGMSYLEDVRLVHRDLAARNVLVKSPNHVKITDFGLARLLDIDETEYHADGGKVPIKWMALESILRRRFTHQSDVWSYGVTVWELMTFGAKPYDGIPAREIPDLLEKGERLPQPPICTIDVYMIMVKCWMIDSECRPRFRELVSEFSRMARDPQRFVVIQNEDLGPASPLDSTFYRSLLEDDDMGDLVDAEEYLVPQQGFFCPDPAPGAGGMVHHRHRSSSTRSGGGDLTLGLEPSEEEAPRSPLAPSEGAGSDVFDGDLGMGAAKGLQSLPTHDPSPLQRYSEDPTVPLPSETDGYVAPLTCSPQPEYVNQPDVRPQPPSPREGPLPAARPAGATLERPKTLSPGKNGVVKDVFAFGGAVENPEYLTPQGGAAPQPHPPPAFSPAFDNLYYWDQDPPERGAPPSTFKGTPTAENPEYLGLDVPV

`CN(C)CC(=O)N1CCC(Oc2ccc3ncnc(Nc4ccc(OCc5ccccn5)c(Cl)c4)c3c2)CC1` [Example 8]: the IC50 stood at 0.002 µM on erbB2 tyrosine kinase, 0.039 µM at EGFR tyrosine kinase and 0.21 µM in experiment [1].

For the molecule `CN(C)CC(=O)N1CCC(Oc2ccc3ncnc(Nc4ccc(OCc5cnccn5)c(Cl)c4)c3c2)CC1` [Example 9, N-[3-chloro-4-(pyrazin-2-ylmethoxy)phenyl]-6-({1-[(dimethylamino)acetyl]piperidin-4-yl}oxy)quinazolin-4-amine], the figures for the IC50 (at erbB2 tyrosine kinase; on EGFR tyrosine kinase; in experiment [1]) were 0.007 µM, 0.021 µM and 0.15 µM, respectively.

As to `CS(=O)(=O)N1CCC(COc2ccc3ncnc(Nc4ccc(OCc5ccccn5)c(Cl)c4)c3c2)C1` (stereo not drawn) [Example 14, N-[3-Chloro-4-(pyridin-2-ylmethoxy)phenyl]-6-{[1-(methylsulfonyl)pyrrolidin-3-yl]methoxy}quinazolin-4-amine], the IC50 at erbB2 tyrosine kinase was 0.002 µM; on EGFR tyrosine kinase, 0.213 µM; in experiment [1] it was 0.004 µM.

For orientation: IC50 means the point on the concentration scale where inhibition reaches its midpoint.
